# From PubChem BioAssay (NCI)
#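 Step 1: Grow cells in 96-well plates. Step 2: Expose to compound for 48 hours at 5 concentrations. Step 3: Interpolate endpoints linearly; if unreached, use highest concentration. GI50: concentration for 50% inhibition of growth. TGI is the concentration that stops growth completely.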
# Assays:
# Experiment in all cases: NCI anticancer screen, dose series, 48 h
# 786-0 renal = tested on: 786-0 renal
# A498 renal = tested on: A498 renal
# A549 NSCLC = tested on: A549 NSCLC
# ACHN renal = tested on: ACHN renal
# BT-549 breast = tested on: BT-549 breast
# CAKI-1 renal = tested on: CAKI-1 renal
# CCRF-CEM leukemia = tested on: CCRF-CEM leukemia
# COLO 205 colon = tested on: COLO 205 colon
# DU-145 prostate = tested on: DU-145 prostate
# EKVX NSCLC = tested on: EKVX NSCLC
# HCC-2998 colon = tested on: HCC-2998 colon
# HCT-116 colon = tested on: HCT-116 colon
# HCT-15 colon = tested on: HCT-15 colon
# HL-60(TB) leukemia = tested on: HL-60(TB) leukemia
# HOP-62 NSCLC = tested on: HOP-62 NSCLC
# HOP-92 NSCLC = tested on: HOP-92 NSCLC
# HS 578T breast = tested on: HS 578T breast
# HT29 colon = tested on: HT29 colon
# IGROV1 ovarian = tested on: IGROV1 ovarian
# K-562 leukemia = tested on: K-562 leukemia
# KM12 colon = tested on: KM12 colon
# LOX IMVI melanoma = tested on: LOX IMVI melanoma
# M14 melanoma = tested on: M14 melanoma
# MALME-3M melanoma = tested on: MALME-3M melanoma
# MCF7 breast = tested on: MCF7 breast
# MDA-MB-231 breast = tested on: MDA-MB-231 breast
# MDA-MB-435 = tested on: MDA-MB-435
# MOLT-4 leukemia = tested on: MOLT-4 leukemia
# NCI-H226 lung = tested on: NCI-H226 lung
# NCI-H23 lung = tested on: NCI-H23 lung
# NCI-H460 lung = tested on: NCI-H460 lung
# NCI-H522 lung = tested on: NCI-H522 lung
# NCI/ADR-RES ovarian = tested on: NCI/ADR-RES ovarian
# OVCAR-3 ovarian = tested on: OVCAR-3 ovarian
# OVCAR-4 ovarian = tested on: OVCAR-4 ovarian
# OVCAR-5 ovarian = tested on: OVCAR-5 ovarian
# OVCAR-8 ovarian = tested on: OVCAR-8 ovarian
# RPMI-8226 leukemia = tested on: RPMI-8226 leukemia
# SF-268 CNS = tested on: SF-268 CNS
# SF-295 CNS = tested on: SF-295 CNS
# SF-539 CNS = tested on: SF-539 CNS
# SK-MEL-2 melanoma = tested on: SK-MEL-2 melanoma
# SK-MEL-28 melanoma = tested on: SK-MEL-28 melanoma
# SK-MEL-5 melanoma = tested on: SK-MEL-5 melanoma
# SK-OV-3 ovarian = tested on: SK-OV-3 ovarian
# SN12C renal = tested on: SN12C renal
# SNB-19 CNS = tested on: SNB-19 CNS
# SNB-75 CNS = tested on: SNB-75 CNS
# SR leukemia = tested on: SR leukemia
# SW-620 colon = tested on: SW-620 colon
# T-47D breast = tested on: T-47D breast
# TK-10 renal = tested on: TK-10 renal
# U251 CNS = tested on: U251 CNS
# UACC-257 melanoma = tested on: UACC-257 melanoma
# UACC-62 melanoma = tested on: UACC-62 melanoma
# UO-31 renal = tested on: UO-31 renal
smiles,measurement,setting,value
CCNC(=O)N1CCc2c(Cl)c3c(c(OC)c2[C@@H]1[C@H]1OCc2c1ccc(OC)c2OC)OCCO3,GI50,786-0 renal,4.24 µM
same,TGI,786-0 renal,> 100 µM
same,GI50,A498 renal,2.6 µM
same,TGI,A498 renal,7.91 µM
same,GI50,A549 NSCLC,4.07 µM
same,TGI,A549 NSCLC,> 100 µM
same,GI50,ACHN renal,6.5 µM
same,TGI,ACHN renal,> 100 µM
same,GI50,BT-549 breast,6.84 µM
same,TGI,BT-549 breast,> 100 µM
same,GI50,CAKI-1 renal,4.2 µM
same,TGI,CAKI-1 renal,> 100 µM
same,GI50,CCRF-CEM leukemia,3.82 µM
same,TGI,CCRF-CEM leukemia,> 100 µM
same,GI50,COLO 205 colon,3.26 µM
same,TGI,COLO 205 colon,10.9 µM
same,GI50,DU-145 prostate,4.2 µM
same,TGI,DU-145 prostate,> 100 µM
same,GI50,EKVX NSCLC,4.18 µM
same,TGI,EKVX NSCLC,> 100 µM
same,GI50,HCC-2998 colon,4.19 µM
same,TGI,HCC-2998 colon,> 100 µM
same,GI50,HCT-116 colon,3.46 µM
same,TGI,HCT-116 colon,> 100 µM
same,GI50,HCT-15 colon,2.72 µM
same,TGI,HCT-15 colon,> 100 µM
same,GI50,HL-60(TB) leukemia,2.49 µM
same,TGI,HL-60(TB) leukemia,6.43 µM
same,GI50,HOP-62 NSCLC,3.69 µM
same,TGI,HOP-62 NSCLC,> 100 µM
same,GI50,HOP-92 NSCLC,11.7 µM
same,TGI,HOP-92 NSCLC,90 µM
same,GI50,HS 578T breast,2.57 µM
same,TGI,HS 578T breast,9.13 µM
same,GI50,HT29 colon,3.38 µM
same,TGI,HT29 colon,25 µM
same,GI50,IGROV1 ovarian,3.6 µM
same,TGI,IGROV1 ovarian,> 100 µM
same,GI50,K-562 leukemia,3.48 µM
same,TGI,K-562 leukemia,> 100 µM
same,GI50,KM12 colon,3.07 µM
same,TGI,KM12 colon,16.5 µM
same,GI50,LOX IMVI melanoma,4.64 µM
same,TGI,LOX IMVI melanoma,27.2 µM
same,GI50,M14 melanoma,2.12 µM
same,TGI,M14 melanoma,5.39 µM
same,GI50,MALME-3M melanoma,6.27 µM
same,TGI,MALME-3M melanoma,> 100 µM
same,GI50,MCF7 breast,2.72 µM
same,TGI,MCF7 breast,> 100 µM
same,GI50,MDA-MB-231 breast,4.95 µM
same,TGI,MDA-MB-231 breast,42.3 µM
same,GI50,MDA-MB-435,1.16 µM
same,TGI,MDA-MB-435,2.83 µM
same,GI50,MOLT-4 leukemia,4.95 µM
same,TGI,MOLT-4 leukemia,> 100 µM
same,GI50,NCI-H226 lung,4.44 µM
same,TGI,NCI-H226 lung,> 100 µM
same,GI50,NCI-H23 lung,4.59 µM
same,TGI,NCI-H23 lung,> 100 µM
same,GI50,NCI-H460 lung,3.47 µM
same,TGI,NCI-H460 lung,13.9 µM
same,GI50,NCI-H522 lung,1.87 µM
same,TGI,NCI-H522 lung,6.66 µM
same,GI50,NCI/ADR-RES ovarian,3.28 µM
same,TGI,NCI/ADR-RES ovarian,> 100 µM
same,GI50,OVCAR-3 ovarian,2.31 µM
same,TGI,OVCAR-3 ovarian,5.37 µM
same,GI50,OVCAR-4 ovarian,40.6 µM
same,TGI,OVCAR-4 ovarian,> 100 µM
same,GI50,OVCAR-5 ovarian,3.93 µM
same,TGI,OVCAR-5 ovarian,> 100 µM
same,GI50,OVCAR-8 ovarian,4.17 µM
same,TGI,OVCAR-8 ovarian,> 100 µM
same,GI50,RPMI-8226 leukemia,4.41 µM
same,TGI,RPMI-8226 leukemia,> 100 µM
same,GI50,SF-268 CNS,6.02 µM
same,TGI,SF-268 CNS,> 100 µM
same,GI50,SF-295 CNS,1.86 µM
same,TGI,SF-295 CNS,6.51 µM
same,GI50,SF-539 CNS,2.35 µM
same,TGI,SF-539 CNS,6.06 µM
same,GI50,SK-MEL-2 melanoma,6.01 µM
same,TGI,SK-MEL-2 melanoma,> 100 µM
same,GI50,SK-MEL-28 melanoma,16.5 µM
same,TGI,SK-MEL-28 melanoma,> 100 µM
same,GI50,SK-MEL-5 melanoma,4.59 µM
same,TGI,SK-MEL-5 melanoma,21.1 µM
same,GI50,SK-OV-3 ovarian,4.58 µM
same,TGI,SK-OV-3 ovarian,> 100 µM
same,GI50,SN12C renal,7.1 µM
same,TGI,SN12C renal,> 100 µM
same,GI50,SNB-19 CNS,4.36 µM
same,TGI,SNB-19 CNS,> 100 µM
same,GI50,SNB-75 CNS,2.2 µM
same,TGI,SNB-75 CNS,7.07 µM
same,GI50,SR leukemia,4.22 µM
same,TGI,SR leukemia,> 100 µM
same,GI50,SW-620 colon,3.86 µM
same,TGI,SW-620 colon,> 100 µM
same,GI50,T-47D breast,4.26 µM
same,TGI,T-47D breast,> 100 µM
same,GI50,TK-10 renal,13.5 µM
same,TGI,TK-10 renal,> 100 µM
same,GI50,U251 CNS,3.75 µM
same,TGI,U251 CNS,37.5 µM
same,GI50,UACC-257 melanoma,9.63 µM
same,TGI,UACC-257 melanoma,> 100 µM
same,GI50,UACC-62 melanoma,5.2 µM
same,TGI,UACC-62 melanoma,> 100 µM
same,GI50,UO-31 renal,5.52 µM
same,TGI,UO-31 renal,> 100 µM
